This note sets out measurements from patent publication US20210230179A1, “THIENO[2,3-B]PYRIDINE DERIVATIVES AS EPAC INHIBITORS AND THEIR PHARMACEUTICAL USES” (INSTITUT NATIONAL DE LA SANTE ET DE LA RECHERCHE MEDICALE …, priority 2018, published 2021).

One assay deals with T1, Epac1 (Homo sapiens, UniProt O95398).
T1 sequence (O95398 191-923 limits assumed): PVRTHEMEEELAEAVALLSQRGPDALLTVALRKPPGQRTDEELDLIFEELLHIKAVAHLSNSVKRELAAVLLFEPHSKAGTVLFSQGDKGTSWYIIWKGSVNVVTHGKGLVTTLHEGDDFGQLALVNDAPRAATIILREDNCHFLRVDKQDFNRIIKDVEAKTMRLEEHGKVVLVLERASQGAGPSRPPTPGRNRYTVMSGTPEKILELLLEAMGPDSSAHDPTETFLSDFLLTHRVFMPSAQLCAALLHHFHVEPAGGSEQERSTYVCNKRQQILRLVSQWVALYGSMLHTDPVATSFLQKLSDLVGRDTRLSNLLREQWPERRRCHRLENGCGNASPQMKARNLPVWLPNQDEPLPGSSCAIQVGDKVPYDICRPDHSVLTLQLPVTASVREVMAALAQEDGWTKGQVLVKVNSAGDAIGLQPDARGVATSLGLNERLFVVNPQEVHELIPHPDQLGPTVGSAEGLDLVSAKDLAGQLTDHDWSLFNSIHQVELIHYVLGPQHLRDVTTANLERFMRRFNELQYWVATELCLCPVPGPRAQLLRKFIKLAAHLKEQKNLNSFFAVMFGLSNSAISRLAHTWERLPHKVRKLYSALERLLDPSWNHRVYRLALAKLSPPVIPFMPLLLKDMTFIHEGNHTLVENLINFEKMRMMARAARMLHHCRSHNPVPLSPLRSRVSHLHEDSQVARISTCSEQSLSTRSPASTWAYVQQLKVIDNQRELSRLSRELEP
The assay is described as follows: biochemical. The settings on record: 30 μM Sp-8-CPT, 20 μM inhibitor. The text has this:
FIGS. 4-8. […] Variations of relative fluorescence units (RFU) were studied as a function of time and fitted to single exponentials.

The next assay addresses T2, Epac1-BRET sensor CAMYEL (Homo sapiens, UniProt O95398, F824A/T823A).
T2 construct: made in house; host or cells: Prokaryotic expression vector pQE30-CAMYEL; used as cell extract
T2 sequence (O95398 191-923 T823A/F824A limits assumed): T1 sequence (O95398 191-923 limits assumed) with T633A, F634A
The assay is described as follows: CAMYEL Epac1-BRET sensor assay (cAMP-induced conformational change). The settings on record: not modified by increasing concentrations of cAMP. It is filed as biochemical.

For another assay, the system named is mice. As to conditions: single i.v. bolus 8 mg/kg 5 min before reperfusion; 45 min occlusion, 24 h reperfusion.

Numbering of substitutions follows the chain as printed.

Description for mice: Statistical significance was determined by two-way ANOVA followed by Bonferroni post-test or t-test. *p<0.01, **p<0.01, ***p<0.001, versus indicated values
Mice were anesthetized with intraperitoneal ketamine (60 mg/kg) and xylazine (6 mg/kg), intubated and ventilated mechanically. Anesthesia was maintained throughout the chirurgical procedure with 1.5% isoflurane. Body temperature was maintained at 37° C. A left thoracotomy was performed in order to enable coronary artery occlusion with a 7-0 Prolene thread placed around the left coronary artery for 45 min, followed by 24 h of reperfusion. […] Myocardial ischemia was confirmed by the presence of regional cyanosis. Reperfusion was confirmed by visualization of a hyperemic response. At this point, the chest was closed in layers. 24 h after reperfusion, mice were anesthetized again, the coronary artery was reoccluded at the previous site, and the heart was excised after Evans blue perfusion. The area at risk and the infarct area were respectively determined by Evans blue and 2,3,5-triphenyltetrazolium chloride (TTC) staining. The area at risk was identified as the non-blue region and expressed as a percentage of the left ventricle weight. The infarcted area was identified as the TTC negative zone and expressed as a percentage of area at risk.

For the compound `C[C@@H]1CCc2c(cc(Br)c(F)c2Br)N1C=O` [(R)-CE3F4, reference compound], the “effect on Epac1 GEF (exchange) activity” value on Epac1 was “reduced”. Moreover, the “IC50 (half-maximal inhibitory concentration), BRET sensor” value on Epac1-BRET sensor CAMYEL was “lower IC50 than AM-001”. Moreover, the “ratio of infarct size to area-at-risk” value in the assay with mice is “failed to reduce infarct size”.
